Source: US12023308B2, “Agents for reversing toxic proteinopathies” (THE BROAD INSTITUTE, INC., priority 2019, dated 2024)
“Also recorded” adds a separate entry of the source.

Assays:
[1] = target: T1, TMED9 (Homo sapiens, UniProt Q9BVK6); assay: Cellular thermal shift assay (CETSA) for TMED9 in P cells; type: binding; conditions: 5 μM, 1 hour
T1 construct: TMED9 abundance in P cells at escalating temperatures (as indicated) with or without treatment with BRD-4780; endogenous in cells; host or cells: P cells (intact cells treated, then heated and lysed)
T1 sequence (Q9BVK6 38-235): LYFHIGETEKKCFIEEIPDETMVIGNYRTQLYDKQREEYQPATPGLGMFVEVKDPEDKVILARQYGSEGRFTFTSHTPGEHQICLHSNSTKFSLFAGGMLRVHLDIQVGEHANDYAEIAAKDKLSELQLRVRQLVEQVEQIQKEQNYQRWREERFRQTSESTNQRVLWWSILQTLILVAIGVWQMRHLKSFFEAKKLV
Description: CETSAs were performed as previously described (Jafari et al., 2014; Reinhard et al., 2015). In brief, P cells were treated in the presence or absence of BRD-4780 for 1 hr, harvested (trypsinized), washed in PBS, resuspended in PBS (containing protease inhibitors) and distributed in 0.2 ml PCR tubes (100 μl; 600,000 cells). Cells were incubated at their designated temperatures for 3 min, then at 25° C. for 3 min and lysed by the addition of 1% NP-40. Immediately thereafter, samples were snap frozen and thawed using thermal cycler set at 25° C. Samples were spun at 20′000×g for 20 min (4° C.) to remove precipitated protein and the supernatant was analyzed by Western blot to examine the TMED9/Nischarin thermal stability.

[2] = tested on: MUC1-wt; assay: BRD-4780 treatment in fs/+ knock-in mice, kidney MUC1-wt by IF; type: in vivo, mouse; conditions: daily oral gavage, 7 days
Description: Mice were anesthetized with 3 L/min 02 mixed with 3% isoflurane using the Combi-Vet® system (Rothacher Medical, Bern, Switzerland) for 5 min. Mouse kidneys were removed, sagittally cut to half and rapidly frozen in Tissue-Tek® O.C.T. Compound, Sakura® Finetek (OCT) (25608-930, VWR) using dry ice and 100% ethanol. Five […] sagittal cryosections (CM1950, Leica) were thaw mounted on microscope slides (Fisherbrand™ Superfrost™ Plus, Fisher Scientific) and kept in the cryostat (at −26° C.) for the duration of the sectioning process. Sections were immersion-fixed for 10 min in 4% PFA (15710, Electron Microscopy Sciences), then washed in PBS. The slides were then subjected to antigen retrieval by immersion in 10 mM citric acid buffer (pH=6), for 10 minutes at 95° C. […]
MUC1-fs and MUC1-wt mean intensities were calculated in kidney sections of mice treated with either vehicle or BRD-4780 (FIGS. 4A, 4B and 12A). As MUC1-fs and MUC1-wt levels varied in different kidney regions, and as sections might contain different portions of the different kidney regions, the levels of these proteins were analyzed only in NCC-positive distal convoluted tubules. […] Each fluorescent channel intensity was measured and a threshold was set for the identification of NCC positive cells. MUC1-fs and MUC1-wt levels were then calculated only in the NCC positive cells. […]

[3] = In vitro toxicity (cell number / viability); type: cell-based; conditions: any concentration tested
Description: Image acquisition and analysis was done as described elsewhere herein. Following image analysis, three parameters were selected, i) MUC1-fs and ii) MUC1-wt total cytoplasm intensity (averaged per cell) and iii) cell number as was detected by Hoechst 33342 stained nuclei. The levels of MUC1-fs and MUC1-wt found following DMSO and JQ1 were defined as 0 and −100% activity, respectively. […] Cell number was normalized to DMSO control. All compound concentrations showing >−20% reduction in cell number were masked out. Based on ±3 median absolute deviation value (FIG. 10A), hit calling criteria for the primary and secondary screens were chosen as MUC1-fs reduction >30% in two or more consecutive concentrations for both replicates. For the secondary screen, dose response curves were generated for each parameter using Genedata Screener (Genedata AG), and positive hits for the profiling screens were selected based on the compounds activity for reducing MUC1-fs and lack of toxicity. MUC1-fs specificity (according to MUC1 fs/wt ratio) was used as an additional positive criterion for selection.

[4] = Munk et al., 1996; cited from earlier work
[5] = tested on: Rhodopsin; assay: BRD-4780 treatment in Rho-P23H/+ mice, rhodopsin staining of retinal sections; type: in vivo, mouse; conditions: 50 mg/Kg/day oral gavage, 28 days
Description: Rhodopsin intensity was calculated in retinal sections of Rho/+ mice treated with either vehicle or BRD-4780 (FIGS. 21A and 21B), as compared to wild-type mice treated with vehicle alone. In healthy retina, Rhodopsin primarily localized to the outer segment of the photoreceptors (OS, indicated by the arrow in FIG. 21A), instead of localizing around the photoreceptor nuclei in the outer nuclear layer (ONL, indicated by an asterisk in FIG. 21A). Since there is no Rhodopsin-P23H specific antibody, the amount of Rhodopsin staining in the outer nuclear layer was calculated as a measurement of Rhodopsin accumulation in intracellular compartments. The calculated Rhodopsin staining in the ONL was normalized to the nuclear staining, to correct for differences in cell number.
The effect of BRD-4780 on Rhodopsin accumulation in intracellular compartments of mouse retinae were tested in age-matched Rho-P23H/+ and +/+ male mice. […] Animal weight was observed daily to monitor toxicity. On day 28, mice were sacrificed, and eyes were removed for further analysis.

[6] = tested on: huntingtin (97 polyQ); assay: Huntingtin-GFP (97 polyQ) accumulation in HEK cells; type: cell-based, human; conditions: 10 μM, 72 hours
Description: HEK293T cells were transfected with Huntingtin 97Q repeats fused to GFP and selected in 0.8 mg/mL G418 (Thermo Fisher Scientific®).
For GFP-Huntingtin experiments (FIGS. 15G and 15H), GFP signal in each cell was calculated using the “spot” identification feature, and total spot intensity for single cells was calculated and averaged for each well.
HEK293T stably expressing huntingtin 97Q-GFP were treated with 10 μM of BRD-4780 or vehicle DMSO, then monitored for GFP intensity by live cell imaging.

CC(C)[C@@H]1[C@H]2CC[C@H](C2)[C@H]1N (racemic) [BRD-4780, 2-endo-amino-3-exo-isopropylbicyclo[2.2.1]heptane]
TMED9 thermal stability (CETSA) [1]: shifted the TMED9 heat denaturation curve to significantly higher temperatures; also recorded: Higher abundance of TMED9 was noted at temperatures >47 °C | MUC1-wt in mouse kidneys [2]: no effect on MUC1-wt | in vitro toxicity [3]: no overt toxicity at any concentration tested | anti-hypertensive efficacy in animal studies [4]: lack of efficacy as an anti-hypertensive | rhodopsin accumulation in intracellular compartments of retina [5]: significantly reduced rhodopsin accumulation in intracellular compartments | intracellular accumulation of GFP-tagged mutant huntingtin (97 polyQ) [6]: did not reverse or diminish the intracellular accumulation; also recorded: no effect on mutant huntingtin
